Results as given in US20110077248A1, “IMIDAZOPYRIDINE AND RELATED ANALOGS AS SIRTUIN MODULATORS” (Sirtris Pharmaceuticals, Inc., priority 2008, published 2011).

Target: T1, SIRT1 (Homo sapiens, UniProt Q96EB6)
T1 construct: His-tag (N); made in house; host or cells: E. coli BL21(DE3), T7-promoter vector
T1 sequence (Q96EB6 1-747): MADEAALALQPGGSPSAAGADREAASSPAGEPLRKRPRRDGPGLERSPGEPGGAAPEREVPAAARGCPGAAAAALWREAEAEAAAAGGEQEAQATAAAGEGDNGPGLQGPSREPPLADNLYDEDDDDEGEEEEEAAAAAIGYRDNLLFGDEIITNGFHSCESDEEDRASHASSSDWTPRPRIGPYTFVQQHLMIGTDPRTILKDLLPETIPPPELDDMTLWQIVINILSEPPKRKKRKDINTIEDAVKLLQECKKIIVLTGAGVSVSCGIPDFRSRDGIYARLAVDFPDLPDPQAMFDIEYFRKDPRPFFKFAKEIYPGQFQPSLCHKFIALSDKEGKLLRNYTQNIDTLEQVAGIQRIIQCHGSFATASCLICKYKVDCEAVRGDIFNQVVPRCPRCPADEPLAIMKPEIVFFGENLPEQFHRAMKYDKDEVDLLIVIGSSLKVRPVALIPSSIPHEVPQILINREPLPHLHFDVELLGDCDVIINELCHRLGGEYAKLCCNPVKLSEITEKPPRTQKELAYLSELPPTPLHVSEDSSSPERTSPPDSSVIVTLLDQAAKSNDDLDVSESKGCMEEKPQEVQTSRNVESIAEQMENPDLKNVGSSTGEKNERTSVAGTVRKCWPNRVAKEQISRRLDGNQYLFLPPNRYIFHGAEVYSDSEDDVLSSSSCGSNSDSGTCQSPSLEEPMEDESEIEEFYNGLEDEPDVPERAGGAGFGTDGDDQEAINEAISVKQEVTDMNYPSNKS
Experiment: Mass spectrometry based assay for modulators of SIRT1 activity (deacetylation of p53-based acetylated peptide)
Format: biochemical
Details: for EC1.5: concentration of test compound that results in 150% activation of SIRT1, 0.5 μM peptide substrate, 120 μM βNAD+, 10 nM SIRT1, 25 min, 25° C.; for Emax: percent maximum fold activation of SIRT1
Source text: A mass spectrometry based assay was used to identify modulators of SIRT1 activity. The mass spectrometry based assay utilizes a peptide having 20 amino acid residues as follows: Ac-EE-K(biotin)-GQSTSSHSK(Ac)NleSTEG-K(5TMRi)-EE-NH2 (SEQ ID NO: 1) wherein K(Ac) is an acetylated lysine residue and Nle is a norleucine. The peptide is labeled with the fluorophore 5TMR (excitation 540 nm/emission 580 nm) at the C-terminus. The sequence of the peptide substrate is based on p53 with several modifications. In addition, the methionine residue naturally present in the sequence was replaced with the norleucine because the methionine may be susceptible to oxidation during synthesis and purification.
The mass spectrometry assay is conducted as follows: 0.5 μM peptide substrate and 120 μM βNAD+ is incubated with 10 nM SIRT1 for 25 minutes at 25° C. in a reaction buffer (50 mM Tris-acetate pH 8, 137 mM NaCl, 2.7 mM KCl, 1 mM MgCl2, 5 mM DTT, 0.05% BSA). Test compounds may be added to the reaction as described above. The SirT1 gene is cloned into a T7-promoter containing vector and transformed into BL21(DE3). After the 25 minute incubation with SIRT1, 10 μL of 10% formic acid is added to stop the reaction. Reactions are sealed and frozen for later mass spec analysis. Determination of the mass of the substrate peptide allows for precise determination of the degree of acetylation (i.e. starting material) as compared to deacetylated peptide (product).
A control for inhibition of sirtuin activity is conducted by adding 1 μL of 500 mM nicotinamide as a negative control at the start of the reaction (e.g., permits determination of maximum sirtuin inhibition). A control for activation of sirtuin activity is conducted using 10 nM of sirtuin protein, with 1 μL of DMSO in place of compound, to determinine the amount of deacetylation of the substrate at a given timepoint within the linear range of the assay. This timepoint is the same as that used for test compounds and, within the linear range, the endpoint represents a change in velocity.
For the above assay, SIRT1 protein was expressed and purified as follows. The SirT1 gene was cloned into a T7-promoter containing vector and transformed into BL21(DE3). The protein was expressed by induction with 1 mM IPTG as an N-terminal His-tag fusion protein at 18° C. overnight and harvested at 30,000×g. Cells were lysed with lysozyme in lysis buffer (50 mM Tris-HCl, 2 mM Tris[2-carboxyethyl]phosphine (TCEP), 10 μM ZnCl2, 200 mM NaCl) and further treated with sonication for 10 min for complete lysis. The protein was purified over a Ni-NTA column (Amersham) and fractions containing pure protein were pooled, concentrated and run over a sizing column (Sephadex S200 26/60 global). The peak containing soluble protein was collected and run on an Ion-exchange column (MonoQ). Gradient elution (200 mM-500 mM NaCl) yielded pure protein. This protein was concentrated and dialyzed against dialysis buffer (20 mM Tris-HCl, 2 mM TCEP) overnight. The protein was aliquoted and frozen at −80° C. until further use.
Sirtuin modulating compounds that activated SIRT1 were identified using the assay described above and are shown below in Table 1. The EC1.5 values represent the concentration of test compounds that result in 150% activation of SIRT1. The EC1.5 values for the activating compounds are represented by A (EC1.5<1.0 uM), B (EC1.5 1-25 uM), C (EC1.5>25 uM). The percent maximum fold activation is represented by A (Fold activation >200%) or B (Fold Activation <200%). “NT” indicates the compound was not tested in a particular assay.

SMILES | EC1.5 | Emax [%]
O=C(Nc1nccs1)c1cccn2nc(-c3ccc(OCC(O)CO)cc3C(F)F)nc12 (stereo in doubt) [Compound 249, (R)-2-(2-(difluoromethyl)-4-(2,3-dihydroxypropoxy)phenyl)-N-(thiazol-2-yl)-[1,2,4]triazolo[1,5-a]pyridine-8-carboxamide] | C (EC1.5>25 uM) | < 200
O=C(Nc1cccn2cc(-c3ccccc3)nc12)c1cscn1 [Compound 101] | B (EC1.5 1-25 uM) | < 200
O=C(Nc1cccn2cc(-c3ccccc3)nc12)c1cnccn1 [Compound 102] | C (EC1.5>25 uM) | < 200
O=C(Nc1cccn2cc(-c3ccccc3)nc12)C1CCNCC1 [Compound 103] | C (EC1.5>25 uM) | < 200
O=C(Nc1nccs1)c1cccn2cc(-c3ccccc3)nc12 [Compound 106] | B (EC1.5 1-25 uM) | < 200
Cc1csc(NC(=O)c2cccn3cc(-c4ccccc4)nc23)n1 [Compound 107] | B (EC1.5 1-25 uM) | > 200
O=C(Nc1ccccc1)c1cccn2cc(-c3ccccc3)nc12 [Compound 108] | C (EC1.5>25 uM) | < 200
O=C(Nc1cnccn1)c1cccn2cc(-c3ccccc3)nc12 [Compound 109] | B (EC1.5 1-25 uM) | < 200
O=C(NC1CCCC1)c1cccn2cc(-c3ccccc3)nc12 [Compound 110] | C (EC1.5>25 uM) | < 200
O=C(NC1CCCC1)c1cccn2cc(-c3cccc(OC(F)(F)F)c3)nc12 [Compound 114] | C (EC1.5>25 uM) | < 200
O=C(Nc1nccs1)c1cccn2cc(-c3cccc(OC(F)(F)F)c3)nc12 [Compound 115, N-(thiazol-2-yl)-2-(3-(trifluoromethoxy)phenyl)imidazo[1,2-a]pyridine-8-carboxamide] | B (EC1.5 1-25 uM) | < 200
O=C(Nc1ccccc1)c1cccn2cc(-c3cccc(OC(F)(F)F)c3)nc12 [Compound 116] | C (EC1.5>25 uM) | < 200
O=C(Nc1cccn2cc(-c3cccc(-c4ccccc4)c3)nc12)c1cscn1 [Compound 121] | C (EC1.5>25 uM) | < 200
O=C(Nc1cccn2cc(-c3cccc(-c4ccccc4)c3)nc12)c1cnccn1 [Compound 123, N-(2-(biphenyl-3-yl)imidazo[1,2-a]pyridin-8-yl)pyrazine-2-carboxamide] | C (EC1.5>25 uM) | < 200
O=C(Nc1cccn2cc(-c3cccc(-c4ccccc4)c3)nc12)c1ccncc1 [Compound 124] | C (EC1.5>25 uM) | < 200
O=C(Nc1cccn2cc(-c3ccccc3)nc12)c1cccc(N2CCCC2)c1 [Compound 131] | C (EC1.5>25 uM) | < 200
O=C(Nc1nc(CN2CCOCC2)cs1)c1cccn2cc(-c3cccc(C(F)(F)F)c3)nc12 [Compound 132, N-(4-(morpholinomethyl)thiazol-2-yl)-2-(3-(trifluoromethyl)phenyl)imidazo[1,2-a]pyridine-8-carboxamide] | A (EC1.5<1.0 uM) | > 200
O=C(Nc1nc(CN2CCOCC2)cs1)c1cccn2cc(-c3cccc(OC(F)(F)F)c3)nc12 [Compound 133] | A (EC1.5<1.0 uM) | > 200
O=C(Nc1ncc(CN2CCOCC2)s1)c1cccn2cc(-c3cccc(C(F)(F)F)c3)nc12 [Compound 134, N-(5-(morpholinomethyl)thiazol-2-yl)-2-(3-(trifluoromethyl)phenyl)imidazo[1,2-a]pyridine-8-carboxamide] | A (EC1.5<1.0 uM) | > 200
O=C(Nc1ncc(CN2CCOCC2)s1)c1cccn2cc(-c3cccc(OC(F)(F)F)c3)nc12 [Compound 135] | B (EC1.5 1-25 uM) | > 200
O=C(Nc1cccc(OCC(O)CO)c1)c1cccn2cc(-c3cccc(OC(F)(F)F)c3)nc12 (stereo not drawn) [Compound 136] | B (EC1.5 1-25 uM) | > 200
O=C(Nc1cccc(OCC(O)CO)c1)c1cccn2cc(-c3cccc(C(F)(F)F)c3)nc12 (stereo not drawn) [Compound 137, N-(3-(2,3-dihydroxypropoxy)phenyl)-2-(3-(trifluoromethyl)phenyl)imidazo[1,2-a]pyridine-8-carboxamide] | A (EC1.5<1.0 uM) | > 200

Further lines, results first:

EC1.5 | Emax [%] | SMILES
C (EC1.5>25 uM) | < 200 | O=C(Nc1cccn2cc(-c3cccc(OC(F)(F)F)c3)nc12)c1cscn1 [Compound 104]
C (EC1.5>25 uM) | < 200 | O=C(Nc1cccn2cc(-c3cccc(OC(F)(F)F)c3)nc12)c1cnccn1 [Compound 105]
B (EC1.5 1-25 uM) | < 200 | O=C(Nc1cccn2cc(-c3cccc(C(F)(F)F)c3)nc12)c1cnccn1 [Compound 111]
C (EC1.5>25 uM) | < 200 | O=C(Nc1nccs1)c1cccn2cc(-c3cccc(C(F)(F)F)c3)nc12 [Compound 112]
C (EC1.5>25 uM) | < 200 | O=C(Nc1ccccc1)c1cccn2cc(-c3cccc(C(F)(F)F)c3)nc12 [Compound 113, N-phenyl-2-(3-(trifluoromethyl)phenyl)imidazo[1,2-a]pyridine-8-carboxamide]
B (EC1.5 1-25 uM) | < 200 | O=C(Nc1cccn2cc(-c3cccc(C(F)(F)F)c3)nc12)c1cscn1 [Compound 117]
B (EC1.5 1-25 uM) | < 200 | O=C(Nc1cnccn1)c1cccn2cc(-c3cccc(C(F)(F)F)c3)nc12 [Compound 118]
C (EC1.5>25 uM) | < 200 | O=C(Nc1cccn2cc(-c3cccc(C(F)(F)F)c3)nc12)c1ccncc1 [Compound 119]
C (EC1.5>25 uM) | < 200 | O=C(Nc1cccn2cc(-c3cccc(C(F)(F)F)c3)nc12)c1cccnc1 [Compound 120]
B (EC1.5 1-25 uM) | > 200 | O=C(Nc1cccn2cc(-c3cccc(C(F)(F)F)c3)nc12)c1ncccn1 [Compound 122, N-(2-(3-(trifluoromethyl)phenyl)imidazo[1,2-a]pyridin-8-yl)pyrimidine-2-carboxamide]
B (EC1.5 1-25 uM) | < 200 | O=C(Nc1cccn2cc(-c3cccc(-c4ccccc4)c3)nc12)c1ncccn1 [Compound 125]
